{"source": "patent US6489307B1", "about": "“Antisense compositions targeted to β1-adrenoceptor-specific mRNA and methods of use” (University of Florida, priority 1998, dated 2002)", "key": {"β2-AR": {"system": "β2-AR", "assay": "β-adrenergic receptor binding assay on renal cortex membranes", "format": "in vivo, rat (SHR)", "details": "0.5 mg/kg i.v.", "protocol": "Four days after intravenous injection of saline (n=6) or 0.5 mg/kg inverted ODN (n=6) or 4, 10, 18 and 40 days after injection of 0.5 mg/kg β1-AS-ODN (n=24), animals were euthanized, and membranes were prepared from the renal cortex of the left kidneys as previously described (Baker and Pitha, 1982). For saturation studies, 100 μg membrane protein was incubated in triplicate with 6 concentrations of [^125](−)iodocyanopindolol (ICYP, NEN Life Science, 6.25 to 100 pmol/L) in a total volume of 250 μL containing 50 mmol/L Tris-HCl (pH 7.4) and 5 mmol/L MgCl2 at 36° C. for 60 min. The nonspecific and β2-adrenergic receptor binding levels were determined in the presence of 1 μmol/L (±)-alprenolol and […] CGP20712A (RBI), respectively. Then the reaction mixture was passed through a Whatman GF/B glass fiber filter with a Brandel harvester, and the bound radioactivity was counted for 1 min."}, "[1]": {"system": "spontaneously hypertensive rats", "assay": "Left ventricular hypertrophy after 2-month treatment", "format": "in vivo, rat (SHR)", "details": "end of 2-month treatment; vs controls", "protocol": "Adult spontaneously hypertensive rats (300-350 g) were treated with β1-AS-ODNs for more than 2 months. The blood pressure was reduced by 20-30 mmHg persistently throughout the treatment period (FIG. 11). Control animals receiving saline or INV-ODNs had no change in blood pressure. At the end of a 2-month treatment, the hearts were dissected and weighed."}, "PRA": {"system": "PRA", "protocol": "PRA was determined with an angiotensin I (^125I) radioimmunoassay kit (DuPont). Plasma Ang II levels were measured by radioimmunoassay as previously described (Phillips and Kimura, 1988)."}, "[2]": {"assay": "Tissue histology after repeated injections", "format": "in vivo, rat (SHR)", "details": "three repeated injections, more than 2 months", "description": "Safety profiles including liver transaminases, hematology, immune response and tissue pathology were investigated during three repeated injections of β1-AS-ODNs for extended periods of time.\nHeart, liver, spleen and kidney were subjected to pathological examination after three repeated injections of β1-AS-ODN for more than 2 months."}, "β2-ARs": {"system": "β2-ARs", "assay": "Quantitative autoradiography of brain, heart and kidney sections", "format": "in vivo, rat (SHR)", "protocol": "(§1) Four days after injection of 1 mg/kg β1-AS-ODN (n=6) or saline (n=6), rats were killed, and tissues were removed and frozen in dry ice. Coronal sections of brain, horizontal sections of heart, and sagittal sections of kidney (20 μm) were cut on a cryostat (Microm, Thornwood, N.Y.) at ^−20° C. and mounted on microscope slides. Every seventh slide was stained with hematoxylin and eosin for histology. Tissue sections were preincubated in Krebs buffer (mmol/L: NaCl 118.4, KCl 4.7, MgSO4 1.2, CaCl2 1.27 and NaH2PO4 10.0, pH 7.1) containing 0.1 mmol/L GTP, 0.1 mmol/L ascorbic acid, and 10 μmol/L PMSF for 30 minutes at 25° C. Sections were then incubated in Krebs buffer containing 0.1 mmol/L ascorbic acid and 10 μmol/L PMSF with 100 pmol/L ICYP at 25° C. for 150 minutes in the presence of 1 μmol/L (^−) propranolol, 100 nmol/L ICI 118,551 ([…]), or 100 nmol/L CGP20712A (β1-selective antagonist) to distinguish nonspecific, β1−, and β2-bindings. Labeled sections were rinsed in the same buffer, followed by two 15-min. washes at 37° C. in the buffer, and rinsed in distilled water at 25° C. (Matthews et al., 1994). Dried sections were then exposed to x-ray films. The images were quantified with a computerized image analysis system (MCID, Imaging Research) and normalized with ^125I standards.\n(§2) Four days after injection of 0.5 mg/kg β1-AS-ODN (n=6) or saline (n=6), rats were euthanized, and the right kidneys were removed and frozen in dry ice. Sagittal sections of kidney (20 μm) were cut on a cryostat (Microm) at −20° C. and mounted on microscope slides. Every seventh slide was stained with hematoxylin and eosin for histology. Receptor autoradiography was performed as described (Matthews et al., 1994) with 100 pmol/L ICYP at 25° C. for 150 min. in the presence of 1 μmol/L (−)-propranolol, […] ICI 118,551 (β2-selective antagonist), or 100 nmol/L CGP 20712A (β1-selective antagonist) to distinguish nonspecific, β1, and β2-bindings. The images were quantified with a computerized image analysis system (MCID, Imaging Research) and normalized with ^125I standards.\n(§3) Four days after injection of 1 mg/kg β1-AS-ODN (n=6) or saline (n=6), rats were sacrificed and tissues were removed and frozen in dry ice. Coronal sections of brain, horizontal sections of heart and sagittal sections of kidney (20 μm) were cut on a cryostat (Microm) at −20° C. and mounted on microscope slides. Every seventh slide was stained with haematoxylin and eosin for histology. Tissue sections were preincubated in Krebs buffer (NaCl 118.4 mM, KCl 4.7 mM, MgSO4 1.2 mM, CaCl2 1.27 mM, NaH2PO4 10.0 mM, pH 7.1) containing 0.1 mM guanosine triphosphate (GTP), 0.1 mM ascorbic acid and 10 μM phenylmethylsulfonylfluoride (PMSF) for 30 min at 25° C. Sections were then incubated in Krebs buffer containing 0.1 mM ascorbic acid and 10 μM PMSF with 100 pM I-CYP at 25° C. for 150 min, in the presence of 1 μM (−)propranolol, 100 nM IC1118,551 (β2-selective antagonist) or 100 nM CGP20712A (β1-selective antagonist) to distinguish non-specific, β1- and β2-bindings. Labeled sections were rinsed in the same buffer, followed by two 15-min washes at 37° C. in the buffer and rinsed in distilled water at 25° C. (Matthews et al., 1994). Dried sections were then exposed to X-ray films (Kodak Biomax-MR). The images were quantitated with a computerized image analysis system (MCID, Imaging Research) and normalized using ^125I-standards."}, "β1-AR": {"system": "β1-AR", "assay": "Quantitative autoradiography of brain, heart and kidney sections", "format": "in vivo, rat (SHR)", "protocol": "as §1, §2, §3"}, "[3]": {"details": "4 days after i.v. administration"}}, "note": "Read-outs that look alike come from different tables or passages of the source.", "data": [{"substance": "5′-CCGCGCCCATGCCGA-3′ (phosphorothioate backbone, further chemistry not given here) [β1-AS-ODN, 15-mer antisense ODN targeted to the AUG start codon of rat β1-AR mRNA]", "values": [{"measurement": "β2-AR level in renal cortex", "setting": "β2-AR", "value": "not affected"}, {"measurement": "left ventricular hypertrophy (LV/BW)", "setting": "[1]", "value": "significantly reduced"}, {"measurement": "PRA", "setting": "PRA; day 4", "value": "not on day 4"}, {"measurement": "PRA", "setting": "PRA; day 10 and day 18", "value": "significantly decreased"}, {"measurement": "time after injection until decrease in PRA and Ang II occurred", "setting": "PRA; single injection", "value": "≈ 10 days"}, {"measurement": "pathological examination of heart, liver, spleen and kidney", "setting": "[2]", "value": "No immunopathology or organ damage"}, {"measurement": "distribution and concentration of β2-subtype in kidney", "setting": "β2-ARs; 4 days after 0.5 mg/kg", "value": "remained unchanged"}, {"measurement": "β2-ARs in any tissues", "setting": "β2-ARs; [3]", "value": "not affected"}, {"measurement": "overall density of β1-subtype in kidney", "setting": "β1-AR; 4 days after 0.5 mg/kg, from 23.5±2.1", "value": "15.4 ± 3.3", "unit": "fmol/mg"}, {"measurement": "β1-AR density in renal cortex", "setting": "β1-AR; 4 days after i.v. 1 mg/kg, from 26.4±3.1", "value": "17.4 ± 3.3", "unit": "fmol/mg"}, {"measurement": "β1-AR density in cardiac ventricles", "setting": "β1-AR; 4 days after i.v. 1 mg/kg, from 30.2±2.1", "value": "20.6 ± 2.5", "unit": "fmol/mg"}, {"measurement": "distribution of β-ARs in forebrain and brain stem regions", "setting": "β1-AR; [3]", "value": "no detectable changes"}]}]}
